# Source: patent US8039501B2, “Synephrine derivatives useful as anti-inflammatory agents” (Universiteit Gent, priority 2005, dated 2011)
# Columns and labels:
# L363 cell line = assay: MTT test, cell viability of L363 cells; assay type: cell-based, human; conditions: Homo sapiens, L-363; 10^−4 M; 10% FCS; FIG. 3B; read-out: Block of L363 cell viability
# Protocol: The MTT test is a standard assay addressing cell toxicity of a compound. It is based on the principle that after 3-4 hours of cell incubation with MTT (3-(4,5-dimethylthiazole-2-yl)-2,5-diphenyl tetrazolium bromide) so-called purple formazan crystals develop in living and early apoptotic cells. Dead cells don't produce formazan crystals.
# Different cell lines were tested. Unless indicated differently, A549 human lung epithelial cells (derived from lung carcinoma) and L929sA murine fibroblast cells were cultured in DMEM with 10% FCS, 100 U/ml penicillin and 100 μg/ml streptomycin. Unless indicated differently, the human multiple myeloma cell lines L363, U266 and MM1.S were cultured in RPMI 1640 with Glutamax-I, supplemented with 10% FCS, 100 U/ml penicillin and 100 μg/ml streptomycin. Cells were seeded at 5000 cells/well (for adherent A549 and L929sA cells) or at 10000 cells/well (for the multiple myeloma lines in suspension) in 96 well plates. Cells were incubated in the presence of the respective synephrine compounds or vehicle (EtOH; for control test) in a final volume of 0.2 ml for 24 or 48 hours at 37° C. Subsequently, 20 μl of MTT solution (5 mg/ml in phosphate-buffered saline) was added to each well. After 4 hours incubation at 37° C., 80 μl of the extraction buffer (10% SDS, 0.01 M HCl) was added. After overnight incubation at room temperature, the optical densities at 590 nm were measured. Results are illustrated in FIGS. 2 to 6 and are expressed as percentage of viable cells as compared to vehicle-treated controls.
# The MTT test was further extended to include alternative synephrine derivatives and a range of multiple myeloma cell lines for which the results are illustrated by FIGS. 3A, 3B and 4A. Human multiple myeloma cell lines L363, U266 and MM1.S were cultured in RPMI 1640 with Glutamax-I, supplemented with 10% FCS, 100 U/ml penicillin and 100 μg/ml streptomycin. Cells were seeded at 10000 cells/well in 96 well plates. Cells were incubated in the presence of test compounds or vehicle in a final volume of 0.2 ml for 24 or 48 hours at 37° C. The test compounds included in the test were the synephrine derivatives CpdA, Naphth, Benz and Isobut, and DEX as a comparative example. Subsequently, 20 μl of MTT solution (5 mg/ml in phosphate-buffered saline) was added to each well. After 4 hours incubation at 37° C., 80 μl of the extraction buffer (10% SDS, 0.01 M HCl) was added. After 48 hours incubation at room temperature, the optical densities at 590 nm were measured. Results are expressed as percentage of viable cells as compared to vehicle-treated controls.
# bfl1 gene = assay: RNase protection analysis of bfl1 gene in MCF7 cells; assay type: cell-based, human; conditions: 10 μM pre-treated 2 hours, TNF, FIG. 9
# Protocol: In a first specific gene expression experiment, RNAse protection analysis on the bfl1 gene, coding for BCL2-related protein A1 that has anti-apoptotic activity. FIG. 9 illustrates the results of the RNAse protection analysis. Cells were pre-treated with CpdA (10 μM) and DEX (1 μM) for 2 hours before TNF induction or non-induction for a total period of 8 hours. Total RNA was recovered (see hereunder for the total RNA extraction protocol) and an RNA protection Assay (hereinafter referred to as RPA) was performed. Transcripts were quantified by autoradiography followed by densiometry.
# For the total RNA extraction, 10^5 cell were homogenized in 1 ml of TRIzol Reagent (GIBCO BRL), incubated 5 minutes at room temperature; then added 200 μl chloroform, vortexed 15 seconds. Mix was incubated on ice for 5 minutes. […]
# RNase Protection Assay (Pharmingen) was used for the detection and quantitation of A1/bfl mRNA species. […] The pelleted RNA was re-suspended in 6 μl of gel loading buffer, incubated at 95° C. for 5 minutes, quickly quenched on ice and analyzed by electrophoresis on 6% polyacrylamide/8M urea gels. Visualization and quantitation of radioactive bands was carried out by a Phosphorlmager and scanned using a bioimaging analyzer (Personal Molecular Imager® FX Bio-Rad). Densitometry analysis of autoradiograms was performed using Quantity One (Bio-Rad). […]
smiles,measurement,setting,value
"CNCC(Cl)c1ccc(OC(C)=O)cc1.Cl (centres unmarked) [CpdA, 2-(4-acetoxyphenyl)-2-chloro-N-methyl-ethylammonium chloride]",cytotoxicity at 100 µM,L363 cell line,50%
same,Transcription of bfl1 gene (RNase protection),bfl1 gene,inhibits transcription of the prosurvival gene A
